Experiment: Measurement of turbidity by UV/Vis spectroscopy (Method 1)
Format: physicochemical
Details: 20 wt % aqueous solution; for Absorbance: light at 290 nm, 1 mm cuvette, DI water reference
Method: A 20 wt % aqueous solution of the compound is analyzed by UV/Vis spectroscopy to measure the absorbance Abs to light at a wavelength of 290 nm, and the turbidity Tb is derived from the measured absorbance Abs by the following Equation 1.
A 20 wt % aqueous solution of the compound is analyzed by UV/Vis spectroscopy to measure the absorbance Abs to light at a wavelength of 290 nm, and a turbidity Tb is derived from the measured absorbance Abs by the following Equation 1.
The absorbance of light at a wavelength of 290 nm is confirmed by analyzing 5 types of turbidity standard solutions (0, 1, 10, 100, and 1000 NTU, respectively) by UV/Vis spectroscopy (using Agilent 8453, 200 to 1100 nm, resolution 2 nm, 1 mm cuvette). In this case, an empty cuvette cell is used as a reference for measurement. A calibration curve (Equation 1) is derived from the absorbance according to the 0 NTU to 1,000 NTU interval. (NTU: Nephelometric Turbidity Unit, water quality standard 1 NTU)
UV/Vis was measured for Samples 1 to 7 prepared in Preparation Example B above using Method 1 of the present disclosure, and the results are illustrated in FIG. 1. Further, values obtained by converting the measured absorbance (Abs) into turbidity using the following Equation 1 are shown in the following Table 1.
500 mg of each of Samples 1 to 7 were put into a vial, a 20 wt % aqueous solution was prepared using distilled water (DI water), and then UV/Vis spectroscopy (using Agilent 8453, 200 to 1100 nm, resolution 2 nm, 1 mm cuvette) was analyzed to confirm the absorbance of light at a wavelength of 290 nm. In this case, DI water was used as a reference for measurement.
The absorbance of light at a wavelength of 290 nm was confirmed by analyzing 5 types of turbidity standard solutions (0, 1, 10, 100, and 1000 NTU, respectively) by UV/Vis spectroscopy (using Agilent 8453, 200 to 1100 nm, resolution 2 nm, 1 mm cuvette). In this case, an empty cuvette cell was used as a reference for measurement.
A calibration curve (Equation 1) was derived from the absorbance according to the 0 NTU to 1,000 NTU interval. (NTU: Nephelometric Turbidity Unit, water quality standard 1 NTU)
Turbidity was derived by introducing the absorbance of Samples 1 to 7 confirmed in 1) above into Equation 1.

Absorbance	Turbidity (converted from absorbance at 290 nm by Equation 1 (calibration 0 to 1,000 NTU standards))	Structure (SMILES)
0.3459	–	C=CC(=O)OCC[N+](CCCC)(CCCC)CCCCCCCCCCCC [Sample 3]
0.2796	74	C=CC(=O)OCC[N+](CCCC)(CCCC)CCCCCCCCCCCC [Sample 5]
0.1615	–	C=CC(=O)OCC[N+](CCCC)(CCCC)CCCCCCCCCCCC [Sample 2]
